Test results as given in the supplement of paper PMC10307832.

Assays:
Test in all cases: relative viability (nuclei count vs DMSO), 5 days (fraction); higher = more cells survive
[1] = compound: CCn1c(-c2nonc2N)nc2cnc(Oc3cccc(NC(=O)c4ccc(OCCN5CCOCC5)cc4)c3)cc21 + Nc1ncn([C@H]2C[C@H](O)[C@@H](CO)O2)c(=O)n1 [Decitabine] (partner 2 µM)
How it was run: (§1)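 Relative viability is defined as nuclei in treated wells over nuclei in vehicle wells. Duplicate plates were run and medians reported. Lung cancer cell lines in 1536-well plates were dosed by pin tool one day after seeding, with one drug or with a fixed anchor-drug dose plus five library-drug doses (not always all listed) in √10 steps, and nuclei were counted after 5 days.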

[2] = compound: CCC1=CN=CN=C1N2CCN(CC2)CC3=NC4=C(N3)C=C(C=C4)C(F)(F)F + Cc1cc(Nc2cc(N3CCN(C)CC3)nc(Sc3ccc(NC(=O)C4CC4)cc3)n2)n[nH]1 [Tozasertib] (partner 0.1 µM)
How it was run: as §1

[3] = compound: CCC1=CN=CN=C1N2CCN(CC2)CC3=NC4=C(N3)C=C(C=C4)C(F)(F)F + CC(C)C[C@H](NC(=O)[C@H](Cc1ccccc1)NC(=O)c1cnccn1)B(O)O [Bortezomib] (partner 0.002 µM)
How it was run: as §1

[4] = compound: CCn1c(-c2nonc2N)nc2cnc(Oc3cccc(NC(=O)c4ccc(OCCN5CCOCC5)cc4)c3)cc21 + N=C(N)NC(=N)NCCc1ccccc1 [Phenformin] (partner 250 µM)
How it was run: as §1

NCI-H2085
relative viability ([1]; first compound 0.04 µM): 0.433 | relative viability ([1]; first compound 0.1265 µM): 0.581 | relative viability ([1]; first compound 0.4 µM): 0.528 | relative viability ([1]; first compound 1.265 µM): 0.466 | relative viability ([1]; first compound 4 µM): 0.472 | relative viability ([2]; first compound 0.04 µM): 0.815 | relative viability ([2]; first compound 0.1265 µM): 0.71 | relative viability ([2]; first compound 0.4 µM): 0.794 | relative viability ([2]; first compound 1.265 µM): 0.698 | relative viability ([2]; first compound 4 µM): 0.633 | relative viability ([3]; first compound 0.04 µM): 0.927 | relative viability ([3]; first compound 0.1265 µM): 0.949 | relative viability ([3]; first compound 0.4 µM): 1.13 | relative viability ([3]; first compound 1.265 µM): 1.03 | relative viability ([3]; first compound 4 µM): 1.04 | relative viability ([4]; first compound 0.04 µM): 0.787 | relative viability ([4]; first compound 0.1265 µM): 0.676 | relative viability ([4]; first compound 0.4 µM): 0.596 | relative viability ([4]; first compound 1.265 µM): 0.551 | relative viability ([4]; first compound 4 µM): 0.559

NCI-H2087
relative viability ([1]; first compound 0.04 µM): 0.321 | relative viability ([1]; first compound 0.1265 µM): 0.324 | relative viability ([1]; first compound 0.4 µM): 0.285 | relative viability ([1]; first compound 1.265 µM): 0.289 | relative viability ([1]; first compound 4 µM): 0.315 | relative viability ([2]; first compound 0.04 µM): 0.26 | relative viability ([2]; first compound 0.1265 µM): 0.243 | relative viability ([2]; first compound 0.4 µM): 0.221 | relative viability ([2]; first compound 1.265 µM): 0.182 | relative viability ([2]; first compound 4 µM): 0.146 | relative viability ([3]; first compound 0.04 µM): 0.859 | relative viability ([3]; first compound 0.1265 µM): 0.805 | relative viability ([3]; first compound 0.4 µM): 0.824 | relative viability ([3]; first compound 1.265 µM): 0.65 | relative viability ([3]; first compound 4 µM): 0.766 | relative viability ([4]; first compound 0.04 µM): 0.598 | relative viability ([4]; first compound 0.1265 µM): 0.458 | relative viability ([4]; first compound 0.4 µM): 0.474 | relative viability ([4]; first compound 1.265 µM): 0.432 | relative viability ([4]; first compound 4 µM): 0.372

NCI-H2126
relative viability ([1]; first compound 0.04 µM): 0.629 | relative viability ([1]; first compound 0.1265 µM): 0.623 | relative viability ([1]; first compound 0.4 µM): 0.56 | relative viability ([1]; first compound 1.265 µM): 0.636 | relative viability ([1]; first compound 4 µM): 0.519 | relative viability ([2]; first compound 0.04 µM): 0.837 | relative viability ([2]; first compound 0.1265 µM): 0.812 | relative viability ([2]; first compound 0.4 µM): 0.813 | relative viability ([2]; first compound 1.265 µM): 0.734 | relative viability ([2]; first compound 4 µM): 0.832 | relative viability ([3]; first compound 0.04 µM): 1.05 | relative viability ([3]; first compound 0.1265 µM): 1.08 | relative viability ([3]; first compound 0.4 µM): 1.19 | relative viability ([3]; first compound 1.265 µM): 1.16 | relative viability ([3]; first compound 4 µM): 1.14 | relative viability ([4]; first compound 0.04 µM): 0.646 | relative viability ([4]; first compound 0.1265 µM): 0.571 | relative viability ([4]; first compound 0.4 µM): 0.392 | relative viability ([4]; first compound 4 µM): 0.405

NCI-H2347
relative viability ([1]; first compound 0.04 µM): 0.607 | relative viability ([1]; first compound 0.1265 µM): 0.565 | relative viability ([1]; first compound 0.4 µM): 0.624 | relative viability ([1]; first compound 1.265 µM): 0.461 | relative viability ([1]; first compound 4 µM): 0.434 | relative viability ([2]; first compound 0.04 µM): 0.405 | relative viability ([2]; first compound 0.1265 µM): 0.454 | relative viability ([2]; first compound 0.4 µM): 0.579 | relative viability ([2]; first compound 1.265 µM): 0.389 | relative viability ([2]; first compound 4 µM): 0.513 | relative viability ([3]; first compound 0.04 µM): 1.07 | relative viability ([3]; first compound 0.1265 µM): 0.92 | relative viability ([3]; first compound 0.4 µM): 0.724 | relative viability ([3]; first compound 4 µM): 1.04 | relative viability ([4]; first compound 0.04 µM): 0.521 | relative viability ([4]; first compound 0.1265 µM): 0.784 | relative viability ([4]; first compound 0.4 µM): 0.465 | relative viability ([4]; first compound 1.265 µM): 0.312 | relative viability ([4]; first compound 4 µM): 0.403

NCI-H2405
relative viability ([1]; first compound 0.04 µM): 0.68 | relative viability ([1]; first compound 0.1265 µM): 0.473 | relative viability ([1]; first compound 0.4 µM): 0.327 | relative viability ([1]; first compound 1.265 µM): 0.251 | relative viability ([1]; first compound 4 µM): 0.241 | relative viability ([2]; first compound 0.04 µM): 0.779 | relative viability ([2]; first compound 0.1265 µM): 0.759 | relative viability ([2]; first compound 0.4 µM): 0.741 | relative viability ([2]; first compound 4 µM): 0.685 | relative viability ([3]; first compound 0.04 µM): 0.892 | relative viability ([3]; first compound 0.1265 µM): 0.703 | relative viability ([3]; first compound 0.4 µM): 0.968 | relative viability ([3]; first compound 4 µM): 1 | relative viability ([4]; first compound 0.04 µM): 0.379 | relative viability ([4]; first compound 0.1265 µM): 0.236 | relative viability ([4]; first compound 0.4 µM): 0.0695 | relative viability ([4]; first compound 1.265 µM): 0.124 | relative viability ([4]; first compound 4 µM): 0.13

NCI-H3122
relative viability ([1]; first compound 0.04 µM): 0.429 | relative viability ([1]; first compound 0.1265 µM): 0.428 | relative viability ([1]; first compound 0.4 µM): 0.49 | relative viability ([1]; first compound 1.265 µM): 0.401 | relative viability ([1]; first compound 4 µM): 0.42 | relative viability ([2]; first compound 0.04 µM): 0.423 | relative viability ([2]; first compound 0.1265 µM): 0.405 | relative viability ([2]; first compound 0.4 µM): 0.384 | relative viability ([2]; first compound 1.265 µM): 0.345 | relative viability ([2]; first compound 4 µM): 0.439 | relative viability ([3]; first compound 0.04 µM): 1.11 | relative viability ([3]; first compound 0.1265 µM): 0.968 | relative viability ([3]; first compound 0.4 µM): 1 | relative viability ([3]; first compound 1.265 µM): 1.03 | relative viability ([3]; first compound 4 µM): 1.05 | relative viability ([4]; first compound 0.04 µM): 0.369 | relative viability ([4]; first compound 0.1265 µM): 0.328 | relative viability ([4]; first compound 0.4 µM): 0.317 | relative viability ([4]; first compound 1.265 µM): 0.256 | relative viability ([4]; first compound 4 µM): 0.23
